Reference: publication PMC12784406, “IscS Kinetics in Native Mass Spectrometry Buffers Reveal Key Physiochemical Properties that Influence Enzyme Activity” (Journal of the American Society for Mass Spectrometry, 2025)

Target: T1, IscS (Escherichia coli, UniProt P0A6B7)
T1 construct: pET vector, expressed in E. coli BL21(DE3), HisTrap Ni-NTA and Sephacryl S-300 purified; homodimer
Experiment: methylene blue sulfide detection assay, […] nm, anaerobic
Type: biochemical
Conditions: 50 mM Tris/150 mM NaCl, pH 8.5, 37 °C, 4 mM DTT; IscS 0.5 uM, without IscU; L-cysteine varied

T1 sequence (P0A6B7 whole entry): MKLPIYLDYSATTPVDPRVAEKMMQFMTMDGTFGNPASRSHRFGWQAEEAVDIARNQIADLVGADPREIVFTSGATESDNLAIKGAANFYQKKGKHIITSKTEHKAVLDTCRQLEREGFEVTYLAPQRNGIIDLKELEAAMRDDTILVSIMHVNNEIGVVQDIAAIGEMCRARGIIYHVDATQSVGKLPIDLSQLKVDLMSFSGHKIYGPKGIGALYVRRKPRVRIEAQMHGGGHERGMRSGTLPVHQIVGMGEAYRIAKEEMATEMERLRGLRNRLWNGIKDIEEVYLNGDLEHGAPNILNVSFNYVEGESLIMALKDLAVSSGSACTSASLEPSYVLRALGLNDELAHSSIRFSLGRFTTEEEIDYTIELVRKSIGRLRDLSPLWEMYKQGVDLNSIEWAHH

N[C@@H](CS)C(=O)O [L-cysteine]
methylene blue sulfide detection assay, 670 nm, anaerobic: Sulfide production was quantitated at different L-cysteine concentrations to determine the k cat values
